What follows are molecules tested against T1, Nav1.7 (or SCN9A) channel (Homo sapiens, UniProt Q15858) (assay: Nav1.7 (hSCN9A) block in HEK cells, Ionworks Quattro automated electrophysiology). Details: Ionworks Quattro assay (IW); HEK cells stably transfected with hSCN9A; read-out: Nav1.7 EIC50 (IW).
T1 construct: expressed in transfected cells
Format: cell-based
Method: The ability of the compounds of formula (I) to block the Nav1.7 (or SCN9A) channel were measured using the assay described below.
Human Embryonic Kidney (HEK) cells were transfected with an hSCN9A construct using lipofectamine reagent (Invitrogen), using standard techniques. Cells stably expressing the hSCN9A constructs were identified by their resistance to G-418 (400 μg/ml). Clones were screened for expression using the whole-cell voltage-clamp technique.
HEK cells stably transfected with hSCN9A were maintained in DMEM medium supplemented with 10% heat-inactivated fetal bovine serum and 400 μg/ml G-418 in an incubator at 37° C. with a humidified atmosphere of 10% CO2. For HTS, cells were harvested from flasks by trypsinization and replated in an appropriate multi-well plate (typically 96 or 384 wells/plate) such that confluence would be achieved within 24 hours of plating. For electrophysiological studies, cells were removed from the culture flask by brief trypsinization and re-plated at low density onto glass cover slips. Cells were typically used for electrophysiological experiments within 24 to 72 hours after plating.
Electrophysiological assays were also conducted using the lonworks Quattro automated electrophysiological platform (Molecular Devices Corp). Intracellular and extracellular solutions were as described above with the following changes, 120 μg/ml amphotericin was added to the intracellular solution to perforate the membrane and allow electrical access to the cells. hSCN9A cells were grown and harvested as for PatchXpress and cells were resuspended in extracellular solution at a concentration of 1×10^6 cells/ml. The onboard liquid handling facility of the Ionworks Quattro was used for dispensing cells and application of test compounds. A voltage protocol was then applied that comprised of a voltage step to fully inactivate the sodium channels, followed by a brief hyperpolarized recovery period to allow partial recovery from inactivation for unblocked sodium channels, followed by a test depolarized voltage step to assess magnitude of inhibition by test compound. Compound effect was determined based on current amplitude difference between the pre-compound addition and post-compound addition scans.
Compounds of the Examples were tested in the assays described above and found to have the Nav1.7 EIC50 (μM) values specified in the table below. All data are derived from the PatchXpress assay unless explicitly stated otherwise.

T1 sequence (Q15858 whole entry): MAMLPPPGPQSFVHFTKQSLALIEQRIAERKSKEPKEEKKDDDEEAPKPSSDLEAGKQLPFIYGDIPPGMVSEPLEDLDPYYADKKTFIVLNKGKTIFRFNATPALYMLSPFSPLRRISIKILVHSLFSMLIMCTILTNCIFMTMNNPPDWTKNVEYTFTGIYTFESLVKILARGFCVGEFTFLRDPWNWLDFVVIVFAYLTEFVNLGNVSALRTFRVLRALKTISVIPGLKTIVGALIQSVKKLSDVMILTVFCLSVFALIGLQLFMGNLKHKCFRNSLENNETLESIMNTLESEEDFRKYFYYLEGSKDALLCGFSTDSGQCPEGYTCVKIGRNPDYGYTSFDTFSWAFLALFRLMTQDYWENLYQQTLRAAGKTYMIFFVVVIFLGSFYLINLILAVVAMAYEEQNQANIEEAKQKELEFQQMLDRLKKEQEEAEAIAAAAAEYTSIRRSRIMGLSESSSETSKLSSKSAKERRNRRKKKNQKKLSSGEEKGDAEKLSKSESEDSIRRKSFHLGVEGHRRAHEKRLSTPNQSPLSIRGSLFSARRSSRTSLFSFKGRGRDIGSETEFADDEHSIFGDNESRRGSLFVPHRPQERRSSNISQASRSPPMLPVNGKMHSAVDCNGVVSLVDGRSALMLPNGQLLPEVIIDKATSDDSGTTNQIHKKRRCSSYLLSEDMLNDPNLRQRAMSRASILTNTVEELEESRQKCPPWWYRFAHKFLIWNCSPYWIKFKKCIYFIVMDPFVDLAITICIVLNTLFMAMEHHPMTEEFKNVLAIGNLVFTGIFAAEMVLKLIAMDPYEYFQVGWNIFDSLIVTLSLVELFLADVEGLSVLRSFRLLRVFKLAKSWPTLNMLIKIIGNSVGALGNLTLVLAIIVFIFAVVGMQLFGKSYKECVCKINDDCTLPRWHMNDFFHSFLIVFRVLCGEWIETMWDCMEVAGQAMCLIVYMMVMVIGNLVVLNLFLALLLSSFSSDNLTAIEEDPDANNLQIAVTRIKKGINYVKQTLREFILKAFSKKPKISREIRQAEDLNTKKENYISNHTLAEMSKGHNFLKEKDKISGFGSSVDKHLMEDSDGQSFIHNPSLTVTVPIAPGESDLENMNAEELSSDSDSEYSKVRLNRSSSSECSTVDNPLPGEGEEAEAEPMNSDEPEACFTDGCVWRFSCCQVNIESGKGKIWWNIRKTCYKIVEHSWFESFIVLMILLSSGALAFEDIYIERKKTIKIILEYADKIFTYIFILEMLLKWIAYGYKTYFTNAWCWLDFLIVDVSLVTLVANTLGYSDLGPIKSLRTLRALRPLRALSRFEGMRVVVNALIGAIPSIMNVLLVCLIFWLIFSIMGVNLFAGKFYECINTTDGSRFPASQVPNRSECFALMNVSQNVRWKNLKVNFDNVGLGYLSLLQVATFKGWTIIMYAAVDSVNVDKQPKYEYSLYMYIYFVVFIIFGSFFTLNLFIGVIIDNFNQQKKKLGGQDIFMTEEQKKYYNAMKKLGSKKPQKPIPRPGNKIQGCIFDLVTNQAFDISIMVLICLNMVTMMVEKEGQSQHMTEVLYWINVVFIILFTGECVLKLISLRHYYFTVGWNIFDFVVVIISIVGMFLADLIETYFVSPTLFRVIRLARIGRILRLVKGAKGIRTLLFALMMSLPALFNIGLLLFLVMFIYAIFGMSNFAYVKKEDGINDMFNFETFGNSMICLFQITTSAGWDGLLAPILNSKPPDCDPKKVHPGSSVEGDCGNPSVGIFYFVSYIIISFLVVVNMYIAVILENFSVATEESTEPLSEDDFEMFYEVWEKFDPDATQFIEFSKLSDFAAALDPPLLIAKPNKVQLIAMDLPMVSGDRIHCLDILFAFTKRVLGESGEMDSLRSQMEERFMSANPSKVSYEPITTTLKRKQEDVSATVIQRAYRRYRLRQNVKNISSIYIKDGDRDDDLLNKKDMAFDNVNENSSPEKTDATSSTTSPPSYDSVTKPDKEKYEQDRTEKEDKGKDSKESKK

Going from `CS(=O)(=O)NC(=O)c1ccc(Oc2cncc3ccccc23)c(C#N)c1` [Example L37, 3-cyano-4-(isoquinolin-4-yloxy)-N-(methylsulfonyl)benzamide] to `CS(=O)(=O)NC(=O)c1ccc(Oc2cc3ccccc3cn2)c(C#N)c1` [Example L43, 3-cyano-4-(isoquinolin-3-yloxy)-N-(methylsulfonyl)benzamide], the IC50 falls from > 323 µM to 41 µM. The second is the more potent here.

Going from `CCc1ccc(Oc2ccc(C(=O)NS(C)(=O)=O)c(C)c2)cn1` [Example L55, 4-[(6-ethylpyridin-3-yl)oxy]-2-methyl-N-(methylsulfonyl)benzamide] to `CCCc1ccc(Oc2ccc(C(=O)NS(C)(=O)=O)cc2F)cn1` [Example L48, 3-fluoro-N-(methylsulfonyl)-4-[(6-propylpyridin-3-yl)oxy]benzamide], the IC50 falls from 300 µM to 38.5 µM (7.8-fold). The second is the more potent here.

Compared with `Cc1ncc(Oc2ccc(C(=O)NS(C)(=O)=O)cc2Cl)cn1` [Example L58, 3-chloro-4-[(2-methylpyrimidin-5-yl)oxy]-N-(methylsulfonyl)benzamide], `Cc1ncc(Oc2ccc(C(=O)NS(C)(=O)=O)cc2C(F)(F)F)cn1` [Example L61, 4-[(2-methylpyrimidin-5-yl)oxy]-N-(methylsulfonyl)-3-(trifluoromethyl)benzamide] is 2.2-fold lower in IC50: 216 µM for the first, 100 µM for the second.

Going from `COc1ccc2nc(Oc3cc(F)c(C(=O)NS(C)(=O)=O)cc3F)ccc2c1` [Example 190, 2,5-difluoro-4-[(6-methoxyquinolin-2-yl)oxy]-N-(methylsulfonyl)benzamide] to `COc1cc(Oc2cc(F)c(C(=O)NS(C)(=O)=O)cc2F)ncn1` [Example 200, 2,5-difluoro-4-[(6-methoxypyrimidin-4-yl)oxy]-N-(methylsulfonyl)benzamide], the IC50 rises from 29.3 µM to 173 µM (5.9-fold).

First: CCc1cn2nc(Oc3cc(F)c(C(=O)NS(C)(=O)=O)cc3F)ccc2n1 [Example 180, 4-[(2-ethylimidazo[1,2-b]pyridazin-6-yl)oxy]-2,5-difluoro-N-(methylsulfonyl)benzamide]
Second: CS(=O)(=O)NC(=O)c1cc(F)c(Oc2nncc3ccccc23)cc1F [Example 195, 2,5-difluoro-N-(methylsulfonyl)-4-(phthalazin-1-yloxy)benzamide]
The IC50 of the first is lower: 232 µM for the first, > 323 µM for the second.

`CCCc1ncc(F)c(Oc2cc(F)c(C(=O)NS(C)(=O)=O)cc2F)n1` [Example 197, 2,5-difluoro-4-[(5-fluoro-2-propylpyrimidin-4-yl)oxy]-N-(methylsulfonyl)benzamide] and `CS(=O)(=O)NC(=O)c1cc(F)c(Oc2ncc(Cl)cn2)cc1F` [Example 198, 4-[(5-chloropyrimidin-2-yl)oxy]-2,5-difluoro-N-(methylsulfonyl)benzamide] cannot be ordered by IC50: > 323 µM for the first, > 323 µM for the second.

`Cn1cnc2cccc(Oc3cc(F)c(C(=O)NS(C)(=O)=O)cc3Cl)c21` [Example L44, 5-chloro-2-fluoro-4-[(1-methyl-1H-benzimidazol-7-yl)oxy]-N-(methylsulfonyl)benzamide] and `CS(=O)(=O)NC(=O)c1cc(Cl)c(Oc2nccc3ccccc23)cc1F` [Example L38, 5-chloro-2-fluoro-4-(isoquinolin-1-yloxy)-N-(methylsulfonyl)benzamide] cannot be ordered by IC50: > 323 µM for the first, > 323 µM for the second.

Going from `CS(=O)(=O)NC(=O)c1ccc(Oc2cncnc2)c(Cl)c1` [Example L64, 3-chloro-N-(methylsulfonyl)-4-(pyrimidin-5-yloxy)benzamide] to `Cc1ccc(Oc2ccc(C(=O)NS(C)(=O)=O)cc2F)cn1` [Example L51, 3-fluoro-4-[(6-methylpyridin-3-yl)oxy]-N-(methylsulfonyl)benzamide], the IC50 falls from > 323 µM to 300 µM.

`Cc1cc(N(C)C)nc(Oc2cc(F)c(C(=O)NS(C)(=O)=O)cc2F)n1` [Example 186, 4-{[4-(dimethylamino)-6-methylpyrimidin-2-yl]oxy}-2,5-difluoro-N-(methylsulfonyl)benzamide] and `Cc1cc(C#N)nc(Oc2cc(F)c(C(=O)NS(C)(=O)=O)cc2F)c1` [Example 185, 4-[(6-cyano-4-methylpyridin-2-yl)oxy]-2,5-difluoro-N-(methylsulfonyl)benzamide] cannot be ordered by IC50: > 323 µM for the first, > 323 µM for the second.

First: COc1c(C(=O)NS(C)(=O)=O)ccc(Oc2ccc(Oc3ccc(F)cc3)nc2)c1F [Example L47, 3-fluoro-4-{[6-(4-fluorophenoxy)pyridin-3-yl]oxy}-2-methoxy-N-(methylsulfonyl)benzamide]
Second: CS(=O)(=O)NC(=O)c1ccc(Oc2cnc3ccccc3c2)c(C#N)c1 [Example L35, 3-cyano-N-(methylsulfonyl)-4-(quinolin-3-yloxy)benzamide]
The IC50 of the first is 2.4-fold higher: 121 µM for the first, 50.2 µM for the second. The second is the more potent here.

The molecules below were run against T1, Nav1.7 (or SCN9A) channel (assay: Nav1.7 (hSCN9A) block in HEK cells, PatchXpress 7000 automated electrophysiology, estimated IC50 (EIC50)). Details: PatchXpress assay; HEK cells stably transfected with hSCN9A, voltage-clamped at V1/2 of inactivation.
Format: cell-based
In short: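 Stable hSCN9A HEK cells voltage-clamped at empirically determined inactivation V1/2 (8 s prepulse), current activated by 20 msec step to 0 mV; % inhibition from current before vs after compound. EIC50 derived from single-point data as concentration × (100−%inhibition)/%inhibition, excluding <20% and >80% inhibition; PatchXpress unless stated.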

First: CS(=O)(=O)NC(=O)c1cc(Cl)c(Oc2cnc(OCC(F)F)c(Cl)c2)cc1F [Example 52, 5-chloro-4-{[5-chloro-6-(2,2-difluoroethoxy)pyridin-3-yl]oxy}-2-fluoro-N-(methylsulfonyl)benzamide]
Second: CS(=O)(=O)NC(=O)c1cc(Cl)c(Oc2cnc(OC3CC3)c(Cl)c2)cc1F [Example 55, 5-chloro-4-{[5-chloro-6-(cyclopropyloxy)pyridin-3-yl]oxy}-2-fluoro-N-(methylsulfonyl)benzamide]
The IC50 of the first is 3.3-fold higher: 0.16 µM for the first, 0.048 µM for the second.

First: CC(C)c1ncc(Oc2cc(F)c(C(=O)NS(C)(=O)=O)cc2Cl)cc1Cl [Example 111, 5-Chloro-4-(5-chloro-6-isopropylpyridin-3-yloxy)-2-fluoro-N-(methylsulfonyl)benzamide]
Second: CC(C)Nc1ncc(Oc2cc(F)c(C(=O)NS(C)(=O)=O)cc2F)cc1Cl [Example 79, 4-{[5-chloro-6-(isopropylamino)pyridin-3-yl]oxy}-2,5-difluoro-N-(methylsulfonyl)benzamide]
The IC50 of the first is 1.9-fold higher: 0.29 µM for the first, 0.15 µM for the second.

First: CS(=O)(=O)NC(=O)c1cc(F)c(Oc2cnc(OCC(F)(F)C(F)(F)F)c(Cl)c2)cc1F [Example 64, 4-{[5-chloro-6-(2,2,3,3,3-pentafluoropropoxy)pyridin-3-yl]oxy}-2,5-difluoro-N-(methylsulfonyl)benzamide]
Second: CC(C)(C)c1ncc(Oc2cc(F)c(C(=O)NS(C)(=O)=O)cc2F)cc1Cl [Example 51, 4-[(6-tert-butyl-5-chloropyridin-3-yl)oxy]-2,5-difluoro-N-(methylsulfonyl)benzamide]
The IC50 of the first is 9.6-fold lower: 0.028 µM for the first, 0.27 µM for the second. The first is the more potent here.

Compared with `CS(=O)(=O)NC(=O)c1cc(F)c(Oc2cnc(OC3CCC(F)(F)CC3)c(Cl)c2)cc1F` [Example 65, 4-({5-chloro-6-[(4,4-difluorocyclohexyl)oxy]pyridin-3-yl}oxy)-2,5-difluoro-N-(methylsulfonyl)benzamide], `CN(c1ncc(Oc2cc(F)c(C(=O)NS(C)(=O)=O)cc2F)cc1Cl)C1CCOC1` (stereo not shown) [Example 139, 4-({5-chloro-6-[methyl(tetrahydrofuran-3-yl)amino]pyridin-3-yl}oxy)-2,5-difluoro-N-(methylsulfonyl)benzamide] is 4-fold higher in IC50: 0.65 µM for the first, 2.6 µM for the second.

Compared with `COc1c(F)c(Oc2cnc(OC(C)C)c(Cl)c2)cc(F)c1C(=O)NS(C)(=O)=O` [Example 72, 4-[(5-chloro-6-isopropoxypyridin-3-yl)oxy]-3,6-difluoro-2-methoxy-N-(methylsulfonyl)benzamide], `CCC(C)S(=O)(=O)NC(=O)c1cc(F)c(Oc2cnc(OC)c(Cl)c2)cc1F` (stereo not shown) [Example 18, N-(sec-butylsulfonyl)-4-[(5-chloro-6-methoxypyridin-3-yl)oxy]-2,5-difluorobenzamide] is lower in IC50: > 1 µM for the first, 0.97 µM for the second. The second is the more potent here.

Going from `CS(=O)(=O)NC(=O)c1cc(Cl)c(Oc2cnc(C3CC3)c(OC(F)(F)F)c2)cc1F` [Example 110, 5-chloro-4-(6-cyclopropyl-5-(trifluoromethoxy)pyridin-3-yloxy)-2-fluoro-N-(methylsulfonyl)benzamide] to `CS(=O)(=O)NC(=O)c1cc(Cl)c(Oc2cnc(C3CC3)c(C3CC3)c2)cc1F` [Example 113, 5-chloro-4-[(5,6-dicyclopropylpyridin-3-yl)oxy]-2-fluoro-N-(methylsulfonyl)benzamide], the IC50 falls from 0.1 µM to 0.053 µM (1.9-fold). The second is the more potent here.

`CS(=O)(=O)NC(=O)c1cc(F)c(Oc2ccc(C(F)(F)F)cn2)cc1F` [Example 194, 2,5-difluoro-N-(methylsulfonyl)-4-{[5-(trifluoromethyl)pyridin-2-yl]oxy}benzamide] and `CC(C)n1ncc2cc(Oc3cc(F)c(C(=O)NS(C)(=O)=O)cc3Cl)ccc21` [Example 20, 5-Chloro-2-fluoro-4-[(1-isopropyl-1H-indazol-5-yl)oxy]-N-(methylsulfonyl)benzamide] cannot be ordered by IC50: 3.1 µM for the first, > 3 µM for the second.

— US8592629B2, “Sulfonamide derivatives as Nav 1.7 inhibitors” (Pfizer Limited, priority 2010, dated 2013)
